Reference: US7585839B2, “Medical uses of intercellular communication facilitating compounds” (Zealand Pharma A/S, priority 2001, dated 2009)

Key:
[1] = system: calcium-induced arrythmias; experiment: Calcium-induced arrhythmia model in mice (CaCl2-induced 2nd degree AV-block); type: in vivo; settings: mouse, in vivo
Method: The antiarrhythmic effects of compounds of this invention were tested in an in vivo model of calcium-induced arrythmias according to the model of Lynch et al.^[37]. […]. Commercial solutions of hypnorm and midazolam were diluted 1:1 in distilled water and one part diluted Hypnorm® is mixed with one part diluted midazolam.
The anaesthesia was induced by s.c. administration in a dose of 0.05-0.075 μl/10 gram mouse. An i.v. cannula was inserted into the tail vein. The lead II ECG signal was recorded continuously by positioning of a stainless steel ECG electrodes on the right forelimb and on the left hind limb. The ground electrode was placed on the right hind limb. The signal was amplified (×5.000-10.000) and filtered (0.1-150 Hz) via a Hugo Sachs Electronic model 689 ECG module. The analogue signal was digitised via a 12 bit data acquisition board (Data Translation model DT321) and sampled at 1000 Hz using the Notocord HEM 3.1 software for Windows NT. After a 10-min equilibration period, the test sample of drug was injected into the tail vein. Mice pre-treated with vehicle were tested as a measure of the control level in untreated animals. The injection volume was 100 μl in all experiments. Infusion of CaCl2 (30 mg/ml, 0.1 ml/min≈100 mg/kg/min (calciumchlorid-2-hydrat, Riedel-de Haën, Germany)) was started 3 min after i.v. administration of drug or vehicle.
The time lag to onset of 2nd degree AV-block was determined as the time from the start of CaCl2 infusion until the first arrhythmic event occured. An event of 2nd degree AV-block was defined as intermittent failure of the AV conduction characterised by a P-wave without the concomitant QRS complex.
Responses were expressed relative to the time until 2nd degree AV-block occurred in vehicle treated mice.

[2] = system: reentry ventricular tachycardia; experiment: Ventricular reentry arrhythmias in dogs after coronary artery occlusion; type: in vivo, dog; settings: after the lowest dose (bolus 0.1 μg/kg; infusion 2 ng/kg/min) i.v.
Method: Three dogs were studied in the anesthetized, open chest state to facilitate electrode placement for mapping. α-chloralose was given as a bolus (200 mg/kg) and then a constant infusion at 8 mg/kg/hr (dissolved in polyethylene glycol, MW=200). The femoral vein and artery was cannulated for administration of fluid and drugs and for measurement of ascending aortic pressure, respectively.
The sinus node was clamped and the atrial appendage was paced with a programmable stimulator with constant current outputs at two times diastolic threshold. Pacing rate was ≧200 b/min to control heart rates. […] Late ventricular diastolic threshold was measured during each intervention; the pacing current was four times threshold.
Test sites were chosen along the shaft of 16 pole needles (J. Kassell, Fayetteville, N.C.); each pole completely surrounds the needle shaft to prevent directionality of needle orientation from recording of adjacent Purkinje strands. Six bipolar electrograms (1 mm spacing) were recorded sequentially down the shaft of the needle by amplifying up to 1000 times, filtering from 3-1300 Hz and recording via oscilloscope during atrial pacing. Four intramural electrograms are recorded on each multipolar needle. […] Inter-needle distance measured on epicardium varies over 6-10 mm in dogs weighing 12-16 kg. […]

human osteoblast [3] = settings: human osteoblast cultures and rat osteosarcoma cell lines; conference abstract; cited from earlier work
[4] = system: phosphoinositol turnover in neonatal rat cardiomyocytes; experiment: Phosphoinositol turnover in primary cardiomyocyte cultures; type: cell-based; settings: 100 nM + noradrenaline 300 nM
Method: Neonatal Wistar rats (1-2 days old) are used. Hank's calcium- and magnesium-free balanced salt solution, buffered with 10 mM HEPES is used for washing during cell separation procedures. The hearts are excised, the ventricles isolated and the tissue cut into small pieces. The myocardial cells are isolated by stepwise enzymatic degradation with collagenase 0.05%, as described by ^[35]. After repeated rounds of centrifugation and washing, the precipitated cells are resuspended in culture medium M199 with Earle's salt, 10% NCS, penicillin (75 U/mL), and streptomycin (75 U/mL) and pre-plated in a Petri dish for 90 minutes. The non-adherent cells are collected in the culture medium and plated in multidishes at 2.5*10^5 cells/well. The cultures are kept in a water-saturated CO2-incubator at 37° C. The cardiomyocyte cultures are used for analyses after 6-7 days.
Cardiomyocyte cultures are incubated for 48 hours in culture medium containing 4 μCi/mL myo-[2-^3H]inositol to label the inositol phospholipids. On the day of analysis the medium is replaced by a buffer solution containing lithium and incubated at 37° C., as described by Meier et al.^[36]. After at least five minutes this buffer is replaced by the same volume of buffer containing test compound and incubated for exactly 20 minutes. The reaction is stopped by rapid replacement of the buffer by ice cold 4% v/v perchloric acid (PCA) and incubation for at least 20 minutes at 0° C. The PCA-extract is neutralised and the [^3H]inositol phosphates are separated by anion-exchange chromatography using Amprep™ columns containing 100 mg SAX Quaternary amine. The [^3H]inositol mono-phosphates are eluted and radioactivity in the fraction measured by liquid scintillation counting.
Before adding test substances to the cultures, the cells are depleted of glucose and oxygen by incubating them in a N2-atmosphere in glucose-free lithium-buffer for 10 minutes at 37° C. Control cells are incubated likewise only at normal atmospheric conditions and in a buffer containing glucose.

human osteoblast [5] = experiment: Lucifer Yellow microinjection dye transfer, human osteoblasts; type: cell-based; settings: 48 hours hypoxia 3-6% O2; 10 minutes incubation; 7 cells before
Method: Human osteblast cells (hOB): Cells were isolated from human bone marrow obtained by puncture of the posterior iliac spine of healthy volunteers (aged 20-36): 10-15 ml marrow material was collected in 15 ml PBS+Ca,Mg (Life Technologies, Cat.No. 14040) with 100 U/ml Heparin (Sigma, Cat.No. H-3149). The mononuclear fraction of the marrow was isolated on a Lymphoprep gradient (Nycomed Pharma, Cat.No. 1001967), by centrifugation at 2200 rpm for 30 min. After harvesting, the mononuclear fraction was washed once with culture medium and centrifuged at 1800 rpm for 10 min. Subsequently cells were counted and plated in culture medium at 8×10^6 cells/100 mm dish. hOB medium (all reagents obtained from Life Technologies): MEM w/o Phenol Red w/Glutamax (Cat.No. 041-93013) supplemented with 10% heat inactivated fetal calf serum (Cat.No. 10106) and 0.1% Penicillin/Streptomycin (Cat.No. 15140). Medium was changed the following day and the cells were cultured at 37° C. in 5% CO2 with medium change every 7 days. After 3-4 weeks of culture the cells had reached 70% confluence. The medium was then supplemented with 100 nM Dexamethasone (Sigma, Cat.No. D-4902) for 7 days. Cells were then plated for video imaging experiments: a 25 mm #1 glass coverslip was placed in a 35 mm dish (or each well of a 6-well multidish), cells were plated at 2.5×10^5 cells/coverslip and cultured for 2-3 days before use. […]

For “Ac-D-Tyr-D-Pro-D-4Hyp-Gly-D-Ala-Gly-NH2 [Compound 2]”, the “CaCl2 mice In vivo, %” value [1] is given as 65 +/− 7%, the “inducibility of epicardial reentry VT” value [2] is given as “no longer inducible” and the “hypoxia-induced decrease of intercellular communication” value (human osteoblast [3]) is given as “completely reversed”. The “increase in phospho-inositol turnover above the increase effected by noradrenaline alone” value ([4]; anoxia and glucose deprivation) was “about 70%”, the “effect on noradrenaline induced increase in phospho-inositol turnover” value ([4]; control conditions) was “no further effect” and the “dye transfer, number of cells” value (human osteoblast [5]) was 9 cells.
